System: Patient-derived fibroblasts, cells from HD patient (ID 090401)
Experiment: Reversal of the HD-signature (mitochondrial behaviour variables) by dynamic imaging of patient-derived fibroblasts
Type: cell-based, human
Conditions: for recovery (weighted overall rescue of the diseased phenotype, discriminant equation on 7 HD-signature variables): 30 min incubation, 0% = diseased status, 100% = healthy status
Experimental: Fibroblasts were labelled with MitoTracker green, a cell-permeant mitochondrial dye not sensitive to mitochondrial membrane potential, for 30 minutes. Images were recorded from an epifluorescence microscope continuously for 6 minutes. Cells were kept at 37° C. for the duration of the image capture. For each experimental condition, 3 to 15 cells were recorded per well from three independent plates, i.e. up to 6000 individual mitochondria. The maximum duration for data acquisition was 30 minutes (i.e. five cells observed during 6 min). Images were captured with a Zeiss Axioplan II microscope along three dimensions in space and in time.
Patient-derived fibroblasts were cultured in DMEM containing 15% fetal calf serum. and 0.5% DMSO, a concentration known to be inert on the mitochondrial behaviour.
Cells were incubated with different doses of resveratrol or cyclosporine A (CSA) diluted in DMSO or with the vehicle only (DMSO) for 30 minutes and observed through time-lapse video-microscopy for another 30 minutes during dynamic image capture.
Resveratrol and CSA were tested at 4 doses spanning […] (10, 1, 0.1 and 0.05 μM).
The negative control was cells from HD patient (ID 090401) with the vehicle only and the positive control was cells from healthy patient (ID 071201) with the vehicle only.
The raw data obtained for each mitochondrion were expressed as a ratio (%) according to the following formula: DATA=(NC−Var)*100/(NC−PC) (NC=average value of the negative control; PC=average value of the positive control; Var=value of the variable).
Effects are expressed as a percent of control values as defined above, i.e. % of phenotypic rescue. 0% represents the diseased status while 100% represents the healthy status.
To express the weighted effect of the variables on the overall rescue, a discriminant equation was applied.

Structure (SMILES): Oc1ccc(C=Cc2cc(O)cc(O)c2)cc1 [Resveratrol]
- recovery (weighted overall rescue of the diseased phenotype, discriminant equation on 7 HD-signature variables) (0.05 μM): detrimental effect with a mild worsening of the diseased status
- recovery (weighted overall rescue of the diseased phenotype, discriminant equation on 7 HD-signature variables) (10 μM): exceeds the healthy status
- overall effect / activity profile over the dose range (weighted dose-response on disease-modification) (doses 10, 1, 0.1 and 0.05 μM): disease-modifying capabilities and rescue of the disease status except at low dose
